Common to all, as to assay type: cell-based, human
Data set [1] has as its system PP2A B subunit. Description: Western blot of PP2A B subunit in Wnt-activated LNCaP cells. An excerpt: (§1) FIG. 45. Proteasome inhibitors block the suppression of MDM2 phosphorylation and suppress degradation of PP2A B subunit protein in Wnt-activated LNCaP cells. […] There was no change in the PP2A catalytic C subunit levels in Wnt-activated or proteasome-inhibitor treated cells (bottom).
Preparation of cell extracts and western blots. Cells were harvested and protein extracts prepared, quantified and used to prepare Western blots as previously described (Example 1; Yang et al., 2005). Western blots were probed with mouse monoclonal antibodies against human Akt protein, phospho-MDM2 (ser 166), hAR (Santa Cruz Biotechnology Inc., Santa Cruz, Calif.), actin (Sigma Chemical Co., St Louis, Mo.) or with rabbit polyclonal antibodies against phospho-Akt (ser 473) or human MDM2 (Cell Signaling Technology, Beverly, Mass.). Recombinant Wnt-1 protein (HA-tagged) was detected with anti-HA antibody (Clontech Inc., Mountain View, Calif.). Antibody binding to the Western blot was detected as previously described (Yang et al., 2005). Densitometry of films was carried out using a Kodak Image Station 420.

The test system of data set [2] is MDM2. Put plainly: Western blot of phosphorylated MDM2 in Wnt-activated LNCaP cells. The settings on record: β-catenin transfected or 7 days androgen-free LNCaP.
Excerpt: (§2) FIGS. 44A-44B. Suppression of MDM2 expression or direct Akt activity relieves Wnt-mediated suppression of hAR protein expression. FIG. 44A. […] (middle). Actin control (bottom). FIG. 44B. […] Actin control (bottom).
as §1
Cell lines, plasmids and siRNAs. LNCaP, CWR22rv-1, PC-3 and DU145 cells were obtained from ATCC and were passaged in normal (for LNCaP, RPMI 1640 with 10% fetal calf serum and supplements) or androgen-free maintained as previously described (Yang et al., 2005). A defective adenovirus that expresses Wnt-1 protein (Ad-Wnt-1) and control, Lac Z expressing adenovirus (Ad-lac Z) were previously described (Young et al., 1998). These viruses were applied at 20 particles/cell in low serum (2%) medium for 1 h. Expression plasmids containing mutated (stabilized) human β-catenin (Tetsu and McCormick, 1999), dominant negative TCF-4 (Chen et al., 2001) or PCDH-PC cDNA were transfected into cells as previously described (Example 1; Yang et al., 2005). Small interfering (si) RNAs targeting β-catenin or lamin were purchased from Dharmacon Inc. siRNA targeting human MDM2 was purchased from Qiagen Inc (Valencia, Calif.). siRNAs were transfected into cells. Proteasome inhibitors MG132 and lactacystin were purchased from Sigma Chemical Co. (St Louis, Mo.) and were used at 5 (MG 132) or 10 (lactacystin) […] for 12 h prior to cell harvesting. […]
(§3) Preparation of cell extracts and western blots. Cells were harvested and protein extracts prepared, quantified and used to prepare Western blots as previously described (Example 1; Yang et al., 2005). […] Recombinant Wnt-1 protein (HA-tagged) was detected with anti-HA antibody (Clontech Inc., Mountain View, Calif.). Antibody binding to the Western blot was detected as previously described (Yang et al., 2005). […]
For orientation: In western blotting, separated proteins are transferred to a membrane and probed.

The subject of data set [3] is hAR protein. Put plainly: Western blot of hAR protein in Wnt-activated LNCaP cells. The following applies: β-catenin or PCDH-PC transfected or 7 days androgen-free LNCaP.
Excerpt: FIGS. 43A-43C. […] FIG. 43A. […] FIG. 43B.
as §2
Cell lines, plasmids and siRNAs. LNCaP, CWR22rv-1, PC-3 and DU145 cells were obtained from ATCC and were passaged in normal (for LNCaP, RPMI 1640 with 10% fetal calf serum and supplements) or androgen-free maintained as previously described (Yang et al., 2005). A defective adenovirus that expresses Wnt-1 protein (Ad-Wnt-1) and control, Lac Z expressing adenovirus (Ad-lac Z) were previously described (Young et al., 1998). These viruses were applied at 20 particles/cell in low serum (2%) medium for 1 h. Expression plasmids containing mutated (stabilized) human β-catenin (Tetsu and McCormick, 1999), dominant negative TCF-4 (Chen et al., 2001) or PCDH-PC cDNA were transfected into cells as previously described (Example 1; Yang et al., 2005). Small interfering (si) RNAs targeting β-catenin or lamin were purchased from Dharmacon Inc. siRNA targeting human MDM2 was purchased from Qiagen Inc (Valencia, Calif.). siRNAs were transfected into cells. Proteasome inhibitors MG132 and lactacystin were purchased from Sigma Chemical Co. (St Louis, Mo.) and were used at 5 (MG 132) or 10 (lactacystin) […] for 12 h prior to cell harvesting. PI3-kinase inhibitor LY294002 (Sigma Chemical Co.) and Akt Inhibitor IV (compound 5233705, EMD Biosciences Inc., San Diego, Calif.) (Kau et al., 2003) were used at […] concentrations, respectively, for 12 h prior to harvesting cells.
as §3

Data set [4] concerns PCDH-PC mRNA. Put plainly: RT-PCR of PCDH-PC mRNA in LNCaP cells. The settings on record: 1 mM db-cAMP, 50 ng/ml IL-6 or 5 nM NS-398, 5 days. An excerpt: (§4) FIGS. 3A-3D. […] FIG. 3A. […] FIG. 3B. […] FIG. 3C. […] FIG. 3D.
FIG. 5A. […] FIG. 5B. […] FIG. 5C.

For data set [5], the system named is NSE and chromogranin-A. Description: Western blot of NE biomarkers in LNCaP cells treated with NE transdifferentiation inducers. The settings on record: 1 mM db-cAMP, 50 ng/ml IL-6 or 5 nM NS-398, 5 days.
Excerpt: as §4

Data set [6] deals with PCDH-PC. Put plainly: Western blot of myc-tagged PCDH-PC in LNCaP cells co-transfected with pPCDH-PC-myc and siRNA. The following applies: siRNA 100 nM co-transfected with pPCDH-PC-myc, 48 hrs. An excerpt: FIGS. 4A-4B. siRNAs against PCDH-PC suppress PCDH-PC expression and NE transdifferentiation of LNCaP cells. FIG. 4A. LNCaP cells were transfected with the pPCDH-PC-myc expression vector and were co-transfected with siRNA against human lamin or siRNAs 181, 190 or 208 designed to suppress PCDH-PC expression. A Western blot made against protein extracts from these cells were probed with anti-myc (Top Panel) to identify expression of the 110 kd PCDH myc-tagged protein, anti-β-actin (Middle Panel) or anti-human E-cadherin (Bottom Panel). FIG. 4B. A repeated experiment that includes control LNCaP cells (no transfection) or pCMV-PCDH-myc transfected LNCaP cells co-transfected with siRNAs against lamin or against PCDH-PC (181, 190 or 208). The Western blot was probed for NSE expression (Top Panel) or for β-actin expression (Bottom Panel).
Expression Vectors, Transfection Protocols and Luciferase/β-Glactosidase Assays. PCDH-PC cDNA was inserted into the mammalian expression vectors pcDNA3 (Invitrogen Life Technologies, Inc., Carlsbad, Calif.) or into pCMV-myc (BD Biosciences, Clontech, Inc., Palo Alto, Calif.) so that the PCDH-PC product generated from this vector (pPCDH-PC-myc) has a C-terminal myc tag. An expression vector containing cDNA encoding a mutated (stabilized) form of human β-catenin (Tetsu and McCormick, 1999) was used. A dominant-negative Tcf expression vector used was previously described (Chen et al., 2001). The Tcf-sensitive reporter vector, pTOP and a CMV-promoted β-galactosidase expression vector were obtained from Upstate Biotechnology, Inc. Transfections used for protein or RNA extractions were done in 35 cm^2 dishes with cells plated at 50% density 12-16 hrs prior. […] Luciferase activity in cell extracts was measured using the Luciferase Assay System of Promega, Inc. (Madison, Wis.). β-galactosidase activity was also measured in the same cell extracts using the β-galactosidase Enzyme Assay System of Promega, Inc. All experiments involving luciferase reporter vectors were done in triplicate for each point. […]

Entries after “also recorded” stand apart in the source; their conditions may differ. Peptide text beside a SMILES is read from it. * marks the point of attachment. Cbz = O=C(OCc1ccccc1)*

These results are taken from patent US20090311716A1, “METHODS TO TREAT OR PREVENT HORMONE-RESISTANT PROSTATE CANCER USING siRNA [sequence] FOR PROTOCADHERIN-PC, OR OTHER INHIBITORS OF PROTOCADHERIN-PC EXPRESSION OR ACTIVITY” (THE TRUSTEES OF COLUMBIA UNIVERSITY IN THE CITY OF NEW YORK, priority 2005, published 2009).

Regarding `CC(C)C[C@@H](C=O)NC(=O)[C@H](CC(C)C)NC(=O)[C@H](CC(C)C)NC(=O)OCc1ccccc1` [MG132] (Cbz-Leu-Leu-Leu-aldehyde), the “loss of PP2A regulatory subunit B” value in data set [1] was “blocked”. In data set [2], the “Wnt-mediated upregulation of MDM2 phosphorylation” value (“Wnt-mediated upregulation” below) was “blocked”. The “Wnt-mediated suppression of hAR protein expression” value (“Wnt-mediated suppression” for short) in data set [3] is on record as “restored to levels commensurate with elevated hAR mRNA levels”.
Take `CC(=O)N[C@@H](CSC(=O)[C@]1([C@@H](O)C(C)C)NC(=O)[C@H](C)[C@@H]1O)C(=O)O` [lactacystin]: in data set [1], the “loss of PP2A regulatory subunit B” value is “blocked”. The “Wnt-mediated upregulation” value in data set [2] is reported as “blocked”. In addition, the “Wnt-mediated suppression” value in data set [3] is reported as “restored to levels commensurate with elevated hAR mRNA levels”.
Take interleukin-6 [IL-6]: the “expression of PCDH-PC mRNA” value in data set [4] was “highly upregulated”. Besides, the “expression of NSE and chromogranin-A proteins” value in data set [5] was “highly upregulated”.
As for `CS(=O)(=O)Nc1ccc([N+](=O)[O-])cc1OC1CCCCC1` [NS-398], the “expression of PCDH-PC mRNA” value in data set [4] is given as “highly upregulated”. Further, the “expression of NSE and chromogranin-A proteins” value in data set [5] is “highly upregulated”.
For “siRNA #190: 21 bp siRNA targeting PCDH-PC mRNA position 3098-3117, 19 bp core with UU overhangs (SEQ ID NO:6) (AAACATGCAGAATTCTGAATG; listed as DNA, further chemistry not given here)”, the “expression of myc-tagged PCDH-PC polypeptide” value in data set [6] is reported as “suppressive effects”.
With “siRNA #208: 21 bp siRNA targeting PCDH-PC mRNA position 3345-3364, 19 bp core with UU overhangs (SEQ ID NO:7) (AAGAAACTAAGGCAGATGATG; listed as DNA, further chemistry not given here)”, the “expression of myc-tagged PCDH-PC polypeptide” value in data set [6] is “suppressive effects”.
`CC[n+]1c(/C=C/N(C)c2ccccc2)n(-c2ccccc2)c2ccc(-c3nc4ccccc4s3)cc21.[I-]` [compound 5233705]: in data set [2], the “Wnt-mediated upregulation” value is on record as “able to suppress; also recorded: relieves”. Further, the “Wnt-mediated suppression” value in data set [3] was “significant elevation; also recorded: relieves”.
